target: URAT-1 transporter (Homo sapiens (Human), UniProt Q96S37); assay: URAT-1 inhibitor activity: [14C]-uric acid uptake in CHO-URAT1(L)GFP#8 (CHO#8) cells, scintillation proximity; type: cell-based; details: inhibition of [14C]-uric acid (30 nM) uptake into CHO#8 cells; compound 0 to 10 μM; 4 parameter logistic fit
Description: The nucleotide sequence for the long isoform of URAT1 (NM_144585) was C-terminally fused to that of enhanced green fluorescent protein (eGFP) (hereinafter referred to as URAT1(L)GFP). The combined sequence was codon-optimised and custom synthesized. The synthesized sequence was generated in pDONR221 Gateway entry vector (Invitrogen Life Technologies) prior to cloning in pLenti6.3/V5 Gateway destination vector (Invitrogen Life Technologies).
Lentiviral particles were generated according to ViraPower HiPerform expression system procedure (Invitrogen Life Technologies) and used to transduce CHO cells. […] The clonal pools were sorted using fluorescence-activated cell sorting (FACS) on the basis of GFP expression with the gating set at the top 50% of expression into single cells which were subsequently expanded to generate clonal lines. […] This cell line was used for all screening activities and is referred to as CHO-URAT1(L)GFP#8 or CHO#8.
The potency of the compounds of formula (I) as inhibitors of the URAT-1 transporter was determined as follows.
CHO#8 cells were cultured in cell line maintenance flasks in medium consisting of Dulbecco's modified Eagle medium (DMEM) with high glucose and sodium pyruvate (4.5 g of glucose per liter, Invitrogen Life Technologies), supplemented with heat-inactivated foetal bovine serum (FBC, 10% v/v), 1×NEAA (non-essential amino acids) and blasticidin (10 μg/ml). Cultures were grown in 175 cm^2 tissue culture flasks in a humidified incubator at approximately 37° C. in approximately 95% air/5% CO2. Near confluent CHO#8 cell cultures were harvested by trypsinisation, re-suspended in culture medium and the process was repeated once or twice weekly to provide sufficient cells for use.
Assay ready flasks were generated by the same method, except the cells were not cultured in blasticidin.
Assay ready frozen cells were generated by freezing 40,000,000 cells in 1 ml of FBS (without blasticidin) containing 10% DMSO per vial. One vial was sufficient for 5 assay plates. Each vial was thawed rapidly to 37° C., washed and re-suspended in pre-warmed culture medium for seeding onto assay plates.
CHO#8 cells were seeded onto Cytostar™ 96-well plates at a density of […]. The cells were cultured for 1 day at approximately 37° C. in a humidified incubator containing approximately 5% CO2 in air. After approximately 24 hours culture, cells were used for uptake experiments.
On the day of assay, culture medium was removed from the wells and the cells were washed once with 50 μL of chloride-containing buffer (136.7 mM NaCl, 5.36 mM KCl, 0.952 mM CaCl2, 0.441 mM KH2PO4, 0.812 mM MgSO4, 5.6 mM D-glucose, 0.383 mM Na2HPO4.2H2O, 10 mM HEPES, pH 7.4 with NaOH). The cells were pre-incubated with another 50 μL of chloride-containing buffer for one hour at approximately 37° C. in a humidified incubator containing approximately 5% CO2 in air.
Assay compound plates were prepared by diluting the compounds of formula (I) with chloride-free buffer (125 mM Na-gluconate, 4.8 mM K-gluconate, 1.3 mM Ca-gluconate, 1.2 mM KH2PO4, 1.2 mM MgSO4, 5.6 mM D-glucose, 25 mM HEPES, pH 7.4 with NaOH) in 100% DMSO to a final concentration of 1% DMSO. [^14C]-Uric Uric acid working stock was made by addition of radiolabeled compound to a final concentration of 120 nM in chloride-free buffer. In all wells, the final assay concentration of solvent (DMSO) was 0.25%; the final assay concentration of [^14C]-uric acid was 30 nM in chloride-free buffer and the final compound of formula (I) concentrations ranged from 0 to 10 μM.
After pre-incubation, cells were washed with 50 μL of chloride-free buffer and another 50 μL of chloride-free buffer was added.

Chain of URAT-1 transporter (Q96S37 other isoform, or with tags, fused parts or gaps): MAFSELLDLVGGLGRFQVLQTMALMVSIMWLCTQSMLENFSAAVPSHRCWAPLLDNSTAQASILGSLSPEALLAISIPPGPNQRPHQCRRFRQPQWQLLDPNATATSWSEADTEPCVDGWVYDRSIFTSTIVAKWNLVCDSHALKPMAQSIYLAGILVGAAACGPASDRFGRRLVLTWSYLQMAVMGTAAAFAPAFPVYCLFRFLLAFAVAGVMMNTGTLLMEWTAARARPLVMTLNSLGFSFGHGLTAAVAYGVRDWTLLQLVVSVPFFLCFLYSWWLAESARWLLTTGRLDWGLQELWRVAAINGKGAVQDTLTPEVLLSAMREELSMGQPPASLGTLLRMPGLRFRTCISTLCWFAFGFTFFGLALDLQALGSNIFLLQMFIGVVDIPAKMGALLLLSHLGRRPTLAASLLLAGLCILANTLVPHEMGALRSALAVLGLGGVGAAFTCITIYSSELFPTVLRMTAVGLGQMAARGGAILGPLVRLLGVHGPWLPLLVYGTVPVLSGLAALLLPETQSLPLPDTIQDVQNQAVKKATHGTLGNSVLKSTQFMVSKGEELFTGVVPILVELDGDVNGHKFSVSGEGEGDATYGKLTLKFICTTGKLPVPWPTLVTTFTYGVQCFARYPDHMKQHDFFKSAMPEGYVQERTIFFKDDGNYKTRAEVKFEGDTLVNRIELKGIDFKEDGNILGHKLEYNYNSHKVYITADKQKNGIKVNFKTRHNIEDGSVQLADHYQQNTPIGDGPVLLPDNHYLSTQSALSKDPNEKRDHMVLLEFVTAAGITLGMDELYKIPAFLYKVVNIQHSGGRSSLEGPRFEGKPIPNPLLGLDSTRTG

| Structure (SMILES) | IC50 |
| --- | --- |
| N#Cc1cc(S(=O)(=O)Nc2ccc(F)cn2)ccc1Oc1ccc(F)c(Cl)c1Cl [Example 38, 3-cyano-4-(2,3-dichloro-4-fluorophenoxy)-N-(5-fluoropyridin-2-yl)benzenesulfonamide] | 55 nM |
| Cc1cc(Oc2ccc(S(=O)(=O)Nc3ccc(F)cn3)cc2C#N)ccc1Cl [Example 34, 4-(4-chloro-3-methylphenoxy)-3-cyano-N-(5-fluoropyridin-2-yl)benzenesulfonamide] | 80 nM |
| N#Cc1ccnc(NS(=O)(=O)c2ccc(Oc3ccc(F)c(Cl)c3)c(C#N)c2)c1 [compound 229] | 126 nM |
| CCOc1cccc(Oc2ccc(S(=O)(=O)Nc3ccc(F)cn3)cc2C#N)c1 [Example 135, 3-cyano-4-(3-ethoxyphenoxy)-N-(5-fluoropyridin-2-yl)benzenesulfonamide] | > 10000 nM |
| N#Cc1cc(S(=O)(=O)Nc2ccc(F)cn2)ccc1Oc1cc(Cl)ccc1C#N [Example 65, 4-(5-chloro-2-cyanophenoxy)-3-cyano-N-(5-fluoropyridin-2-yl)benzenesulfonamide] | 182 nM |
| COc1cccc(Oc2ccc(S(=O)(=O)Nc3ccc(F)cn3)cc2C#N)c1C [Example 181, 3-cyano-N-(5-fluoropyridin-2-yl)-4-(3-methoxy-2-methylphenoxy)benzenesulfonamide] | > 10000 nM |
| CCOc1ccc(Oc2ccc(S(=O)(=O)Nc3ccc(F)cn3)cc2C#N)cc1 [Example 153, 3-cyano-4-(4-ethoxyphenoxy)-N-(5-fluoropyridin-2-yl)benzenesulfonamide] | > 10000 nM |
| CC(C)(C)c1cccc(Oc2ccc(S(=O)(=O)Nc3ccc(F)cn3)cc2C#N)c1 [Example 129, 4-(3-tert-butylphenoxy)-3-cyano-N-(5-fluoropyridin-2-yl)benzenesulfonamide] | > 10000 nM |
| N#Cc1ccc(Oc2ccc(S(=O)(=O)Nc3ccc(F)cn3)cc2C#N)cn1 [Example 205, 3-cyano-4-[(6-cyanopyridin-3-yl)oxy]-N-(5-fluoropyridin-2-yl)benzenesulfonamide] | 2630 nM |
| N#Cc1cc(S(=O)(=O)Nc2ccc(F)cn2)ccc1Oc1ccc(F)cc1 [Example 183, 3-cyano-4-(4-fluorophenoxy)-N-(5-fluoropyridin-2-yl)benzenesulfonamide] | 183 nM |
| N#Cc1cc(F)ccc1Oc1ccc(S(=O)(=O)Nc2ccc(F)cn2)cc1C#N [Example 36, 3-cyano-4-(2-cyano-4-fluorophenoxy)-N-(5-fluoropyridin-2-yl)benzenesulfonamide] | 241 nM |
| N#Cc1ccc(Oc2ccc(S(=O)(=O)Nc3ccnnc3)cc2C#N)cc1Cl [Example 94, 4-(3-chloro-4-cyanophenoxy)-3-cyano-N-(pyridazin-4-yl)benzenesulfonamide] | > 10000 nM |
| N#Cc1cc(S(=O)(=O)Nc2ccc(F)cn2)ccc1Oc1ccccc1Cl [Example 9, 4-(2-chlorophenoxy)-3-cyano-N-(5-fluoropyridin-2-yl)benzenesulfonamide] | 208 nM |
| COc1cc(C)cc(Oc2ccc(S(=O)(=O)Nc3ccc(F)cn3)cc2C#N)c1 [Example 182, 3-cyano-N-(5-fluoropyridin-2-yl)-4-(3-methoxy-5-methylphenoxy)benzenesulfonamide] | 175 nM |
| Cc1ccc(NS(=O)(=O)c2ccc(Oc3ccc(C#N)c(Cl)c3)c(C#N)c2)nc1 [compound 233] | 233 nM |
| N#Cc1cc(S(=O)(=O)Nc2ccc(F)cn2)ccc1Oc1ccc(Cl)cc1OC(F)F [Example 74, 4-[4-chloro-2-(difluoromethoxy)phenoxy]-3-cyano-N-(5-fluoropyridin-2-yl)benzenesulfonamide] | > 10000 nM |
| COc1ccc(Oc2ccc(S(=O)(=O)Nc3ccc(F)cn3)cc2C#N)cc1 [Example 188, 3-cyano-N-(5-fluoropyridin-2-yl)-4-(4-methoxyphenoxy)benzenesulfonamide] | 3740 nM |
| COc1cc(Cl)cc(Oc2ccc(S(=O)(=O)Nc3ccc(F)cn3)cc2C#N)c1 [Example 162, 4-(3-chloro-5-methoxyphenoxy)-3-cyano-N-(5-fluoropyridin-2-yl)benzenesulfonamide] | 125 nM |
| N#Cc1cc(S(=O)(=O)Nc2ccc(F)cn2)ccc1Oc1ccc(F)c(F)c1 [Example 77, 3-cyano-4-(3,4-difluorophenoxy)-N-(5-fluoropyridin-2-yl)benzenesulfonamide] | 43 nM |

Next, values leading:

| IC50 | Structure (SMILES) |
| --- | --- |
| 502 nM | Cc1c(F)ccc(Oc2ccc(S(=O)(=O)Nc3ccc(F)cn3)cc2C#N)c1C [Example 172, 3-cyano-4-(4-fluoro-2,3-dimethylphenoxy)-N-(5-fluoropyridin-2-yl)benzenesulfonamide] |
| > 10000 nM | O=S(=O)(Nc1ncc(F)cn1)c1cc(Cl)c(Oc2ccc(F)c(F)c2)cc1F [compound 212] |
| > 10000 nM | CC(C)c1ccc(Oc2ccc(S(=O)(=O)Nc3ccc(F)cn3)cc2C#N)cc1 [Example 126, 3-cyano-N-(5-fluoropyridin-2-yl)-4-[4-(propan-2-yl)phenoxy]benzenesulfonamide] |
| > 10000 nM | CCOc1ccc(Oc2ccc(S(=O)(=O)Nc3ccc(F)cn3)cc2C#N)cc1Cl [Example 116, 4-(3-chloro-4-ethoxyphenoxy)-3-cyano-N-(5-fluoropyridin-2-yl)benzenesulfonamide] |
| 122 nM | Cc1ccc(C)c(Oc2ccc(S(=O)(=O)Nc3ccc(F)cn3)cc2C#N)c1 [Example 158, 3-cyano-4-(2,5-dimethylphenoxy)-N-(5-fluoropyridin-2-yl)benzenesulfonamide] |
| 187 nM | Cc1c(F)ccc(Oc2ccc(S(=O)(=O)Nc3ccc(F)cn3)cc2C#N)c1Cl [Example 147, 4-(2-chloro-4-fluoro-3-methylphenoxy)-3-cyano-N-(5-fluoropyridin-2-yl)benzenesulfonamide] |
| 131 nM | COc1c(Oc2ccc(S(=O)(=O)Nc3ccc(F)cn3)cc2C#N)ccc(F)c1C [Example 173, 3-cyano-4-(4-fluoro-2-methoxy-3-methylphenoxy)-N-(5-fluoropyridin-2-yl)benzenesulfonamide] |
| 12 nM | N#Cc1ccc(Oc2ccc(S(=O)(=O)Nc3ccc(Cl)cn3)cc2C#N)cc1Cl [compound 232, 4-(3-chloro-4-cyanophenoxy)-N-(5-chloropyridin-2-yl)-3-cyanobenzenesulfonamide] |
| 594 nM | Cc1cccnc1NS(=O)(=O)c1ccc(Oc2ccc(C#N)c(Cl)c2)c(C#N)c1 [Example 101, 4-(3-chloro-4-cyanophenoxy)-3-cyano-N-(3-methylpyridin-2-yl)benzenesulfonamide] |
| 69 nM | COc1cccc(Cl)c1Oc1ccc(S(=O)(=O)Nc2ccc(F)cn2)cc1C#N [Example 114, 4-(2-chloro-6-methoxyphenoxy)-3-cyano-N-(5-fluoropyridin-2-yl)benzenesulfonamide] |
| 57 nM | N#Cc1cc(Oc2ccc(S(=O)(=O)Nc3ccc(F)cn3)cc2C#N)ccc1F [Example 19, 3-cyano-4-(3-cyano-4-fluorophenoxy)-N-(5-fluoropyridin-2-yl)benzenesulfonamide] |
| > 5970 nM | O=S(=O)(Nc1ncccn1)c1cc(Cl)c(Oc2ccc(Cl)cc2OC(F)F)cc1F [Example 83, 5-chloro-4-[4-chloro-2-(difluoromethoxy)phenoxy]-2-fluoro-N-(pyrimidin-2-yl)benzenesulfonamide] |
| 39 nM | Cc1cc(Oc2ccc(S(=O)(=O)Nc3ccc(F)cn3)cc2C#N)ccc1C#N [Example 61, 3-cyano-4-(4-cyano-3-methylphenoxy)-N-(5-fluoropyridin-2-yl)benzenesulfonamide] |
| 209 nM | Cc1ccc(Oc2ccc(S(=O)(=O)Nc3ccc(F)cn3)cc2C#N)cc1Cl [Example 22, 4-(3-chloro-4-methylphenoxy)-3-cyano-N-(5-fluoropyridin-2-yl)benzenesulfonamide] |

— patent US9067922B2, “Chemical compounds” (Pfizer Limited, priority 2013, dated 2015)
